Experimental data from PubChem BioAssay (NCI).
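In this assay, cells in 96-well plates receive the compound at five concentrations for 48 hours. Endpoints are linearly interpolated between the surrounding concentrations. At the GI50, growth is halved. The concentration for full growth arrest is given as TGI.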

Key:
Assay in all cases: NCI anticancer screen, dose series, 48 h
[1] = tested on: SF-539 CNS
[2] = tested on: NCI-H460 lung
[3] = tested on: BT-549 breast
[4] = tested on: UACC-62 melanoma
[5] = tested on: SR leukemia
[6] = tested on: HCT-15 colon
[7] = tested on: SNB-19 CNS
[8] = tested on: OVCAR-5 ovarian
[9] = tested on: UO-31 renal
[10] = tested on: SN12C renal
[11] = tested on: 786-0 renal
[12] = tested on: MDA-MB-231 breast
[13] = tested on: MOLT-4 leukemia
[14] = tested on: A498 renal
[15] = tested on: COLO 205 colon
[16] = tested on: PC-3 prostate
[17] = tested on: IGROV1 ovarian
[18] = tested on: RPMI-8226 leukemia
[19] = tested on: HCT-116 colon
[20] = tested on: NCI/ADR-RES ovarian
[21] = tested on: U251 CNS
[22] = tested on: NCI-H522 lung
[23] = tested on: HOP-62 NSCLC
[24] = tested on: SNB-75 CNS
[25] = tested on: LOX IMVI melanoma
[26] = tested on: T-47D breast
[27] = tested on: TK-10 renal
[28] = tested on: CCRF-CEM leukemia
[29] = tested on: UACC-257 melanoma
[30] = tested on: SF-268 CNS
[31] = tested on: MALME-3M melanoma
[32] = tested on: SW-620 colon
[33] = tested on: SK-MEL-28 melanoma
[34] = tested on: SK-MEL-5 melanoma
[35] = tested on: NCI-H226 lung
[36] = tested on: DU-145 prostate
[37] = tested on: RXF 393 renal
[38] = tested on: HOP-92 NSCLC
[39] = tested on: SK-MEL-2 melanoma
[40] = tested on: K-562 leukemia
[41] = tested on: OVCAR-4 ovarian
[42] = tested on: OVCAR-8 ovarian
[43] = tested on: SF-295 CNS
[44] = tested on: A549 NSCLC
[45] = tested on: HL-60(TB) leukemia
[46] = tested on: ACHN renal
[47] = tested on: MDA-MB-435
[48] = tested on: HCC-2998 colon
[49] = tested on: OVCAR-3 ovarian
[50] = tested on: KM12 colon
[51] = tested on: HS 578T breast
[52] = tested on: HT29 colon
[53] = tested on: NCI-H23 lung
[54] = tested on: M14 melanoma
[55] = tested on: SK-OV-3 ovarian
[56] = tested on: MCF7 breast

## COc1ccc(-c2cc(/C=C/C(=O)c3ccc(N)cc3)[nH]n2)cc1OC
[1]
  GI50: 1.73 µM
  TGI: 3.53 µM
[2]
  GI50: 2.03 µM
  TGI: 4.53 µM
[3]
  GI50: 1.5 µM
  TGI: 2.94 µM
[4]
  GI50: 3.11 µM
  TGI: 10.9 µM
[5]
  GI50: 0.587 µM
  TGI: 5.31 µM
[6]
  GI50: 1.7 µM
  TGI: 5.37 µM
[7]
  GI50: 4.36 µM
  TGI: 18 µM
[8]
  GI50: 2.62 µM
  TGI: 7.94 µM
[9]
  GI50: 3.03 µM
  TGI: 13.1 µM
[10]
  GI50: 3.53 µM
  TGI: 13.7 µM
[11]
  GI50: 1.88 µM
  TGI: 4.39 µM
[12]
  GI50: 4.42 µM
  TGI: 17.2 µM
[13]
  GI50: 3.11 µM
  TGI: 16.5 µM
[14]
  GI50: 2.37 µM
  TGI: 7.09 µM
[15]
  GI50: 1.88 µM
  TGI: 3.59 µM
[16]
  GI50: 3.71 µM
  TGI: 19.8 µM
[17]
  GI50: 4.56 µM
  TGI: 19 µM
[18]
  GI50: 1.28 µM
  TGI: 5.52 µM
[19]
  GI50: 1.71 µM
  TGI: 3.51 µM
[20]
  GI50: 6.21 µM
  TGI: > 100 µM
[21]
  GI50: 1.74 µM
  TGI: 3.66 µM
[22]
  GI50: 1.65 µM
  TGI: 3.22 µM
[23]
  GI50: 2.8 µM
  TGI: 9.67 µM
[24]
  GI50: 2.74 µM
  TGI: 14.2 µM
[25]
  GI50: 1.92 µM
  TGI: 3.91 µM
[26]
  GI50: 4.25 µM
  TGI: 26 µM
[27]
  GI50: 10.9 µM
  TGI: 23 µM
[28]
  GI50: 1.74 µM
  TGI: 7.81 µM
[29]
  GI50: 6.46 µM
  TGI: 19.5 µM
[30]
  GI50: 1.89 µM
  TGI: 4.4 µM
[31]
  GI50: 6.72 µM
  TGI: 21.2 µM
[32]
  GI50: 2.5 µM
  TGI: 6.94 µM
[33]
  GI50: 2.14 µM
  TGI: 5.66 µM
[34]
  GI50: 3.16 µM
  TGI: 11.5 µM
[35]
  GI50: 2.32 µM
  TGI: 7.38 µM
[36]
  GI50: 3.74 µM
  TGI: 13.5 µM
[37]
  GI50: 2.15 µM
  TGI: 5.12 µM
[38]
  GI50: 14.9 µM
  TGI: 30.9 µM
[39]
  GI50: 8.44 µM
  TGI: 22.2 µM
[40]
  GI50: 2.03 µM
  TGI: 36.4 µM
[41]
  GI50: 2.68 µM
  TGI: 15.8 µM
[42]
  GI50: 2.95 µM
  TGI: 10.5 µM
[43]
  GI50: 3.58 µM
  TGI: 15.2 µM
[44]
  GI50: 2.75 µM
  TGI: 10.1 µM
[45]
  GI50: 3.45 µM
  TGI: > 100 µM
[46]
  GI50: 1.67 µM
  TGI: 3.29 µM
[47]
  GI50: 2.53 µM
  TGI: 7.23 µM
[48]
  GI50: 2.02 µM
  TGI: 3.83 µM
[49]
  GI50: 1.92 µM
  TGI: 4.19 µM
[50]
  GI50: 1.68 µM
  TGI: 3.35 µM
[51]
  GI50: 6.58 µM
  TGI: > 100 µM
[52]
  GI50: 2.6 µM
  TGI: 6.91 µM
[53]
  GI50: 4.21 µM
  TGI: 19.3 µM
[54]
  GI50: 2.28 µM
  TGI: 5.11 µM
[55]
  GI50: 4.86 µM
  TGI: 16.8 µM
[56]
  GI50: 2.28 µM
  TGI: 8.48 µM
